Assay results: patent publication US20240239786A1, “COMPOSITIONS AND METHODS FOR THE TREATMENT AND PREVENTION OF CANCER” (Yale University, priority 2021, published 2024)

Tests used:
Type in all cases: cell-based
PEO1-OR cells = experiment: MTS cytotoxicity assay, sensitization to olaparib, PEO1-OR
Hs 832(C).T cells = experiment: Caspase 3/7 assay, Hs 832(C).T; settings: benign ovarian cyst fibroblast cells Hs 832(C).T
Procedure: (§1) Cells were pre-treated with 30 μM DB4 for 1 hr and then treated with various concentrations of olaparib for 72 hr. Cell survival was determined by MTS cytotoxicity assay. Data are means±SD (N=3-4). […] EOB calculation was used to quantify the synergy of the combination of DB4 and various concentrations of olaparib in PEO1 or PEO4 cells as shown in FIG. 8A. EOB>0, synergism; EOB=0, additivity; EOB<0, antagonism. […] Cells were pre-treated with 30 μM DB4-F for 1 hr and then treated with various concentrations of olaparib for 72 hr. Cell survival was determined by MTS cytotoxicity assay. Data are means±SD (N=3-4). […] EOB calculation was used to quantify the synergy of the combination of DB4-F and various concentrations of olaparib in PEO1 or PEO4 cells as shown in FIG. 8B. […] Cell survival was determined by MTS cytotoxicity assay. […] Caspase 3/7 activity was expressed as RLU per μg/μl protein. […] Caspase 3/7 activity was expressed as RLU per μg/μl protein. […] Cells were treated and caspase 3/7 activity was measured as described in FIG. 8G and FIG. 8H.
Furthermore, the effects of DB4 on olaparib-induced apoptosis at 24 hr were evaluated. […]
The assay was performed as described previously (Lin Z P et al., 2018, PLOS One, 13:e0207399). […] Total protein concentration of cell lysates was determined as described above. Caspase 3/7 activity was expressed as luminescence units (RLU) per μg/μL protein for each sample.

PEO4 cells = experiment: MTS cytotoxicity assay, sensitization to olaparib, PEO4; settings: 30 μM, olaparib 72 hr
Procedure: as §1, with “8B. EOB>0, synergism; EOB=0, additivity; EOB<0, antagonism.” for “8B.”
It was also examined whether DB4 sensitized BRCA-wild type EOC cells to a PARP inhibitor. BRCA2-mutated PEO1 and BRCA2-wild type PEO4 cells were treated with DB4 at 30 μM in combination with various concentrations of olaparib and cell survival was determined. […]

## C=CCn1c(SCc2cccc(Cl)c2)nnc1C1CCN(Cc2nc3ccccc3s2)CC1 [DB4, 2-[(4-{4-allyl-5-[(3-chlorobenzyl)thio]-4H-1,2,4-triazol-3-yl}-1-piperidinyl)methyl]-1,3-benzothiazole]
PEO1-OR cells; DB4 at 5 μM
  sensitization to olaparib (cell survival): partially sensitized
PEO1-OR cells; DB4 at 20 μM
  sensitization to olaparib (cell survival): near-fully sensitized
Hs 832(C).T cells
  effect on apoptotic effects of olaparib (caspase 3/7): did not enhance the apoptotic effects of olaparib
PEO4 cells
  sensitization to olaparib (cell survival): effectively sensitized
